# Test results: US20210292755A1, “NOVEL DOUBLE-STRANDED OLIGONUCLEOTIDES FOR THE TREATMENT OF CANCER” (SELEXEL, priority 2016, published 2021)
# Legend:
# γH2AX = assay: Indirect immunofluorescence of γH2AX, bleomycin-treated transfected cells; format: cell-based, human
# Description: (§1) FIG. 8: Immuno detection of γH2AX (first column) and 53BP1 (second column) in C4-2 cells treated for 6 h with bleomycin ([…]) or the vehicle added 72 h after transfection of cells by a control siRNA (Cont), siAR7 siRNA, or siARH2AX-1.
# (§2) All the cells used in the following examples are human cells and express H2AX.
# (§3) The cells are cultured in DMEM or RPMI supplemented with 10% fetal calf serum, or as recommended by the ATCC. When indicated, they are transfected with siRNA using lipofectamine (Life Technologies), following the supplier's protocol. The number of living cells after the indicated treatments was quantified by measuring their metabolic activity by the WST1 test according to the supplier's indications (Roche).
# (§4) The effect of siRNA transfection and/or treatments by different chemotherapeutic agents on gene expression was measured: • by RT-qPCR quantification of mRNAs extracted by a conventional phenol-chloroform method (Trizol). The amount of RNA was normalized by measuring the cyclophilin A-encoding mRNA which is not regulated by AR (delta delta CT method). • by Western blotting on protein extracts. The antibodies used are: AR: Santacruz, N-20 sc-816; H2AX: Merck Millipore ref 07-627; Tubulin: Sigma T6199; Actin: Merck Millipore MAB 1501; γH2AX: Merck Millipore 05-636. […] The antibodies used are the following: γH2AX: Merck Millipore 05-636; 53BP1: Novus, NB 100-304.
# (§5) In the experiment shown in FIG. 8, C4-2 cells were transfected with a control or siARH2AX-1 siRNA. 72 hours after transfection, the cells were then treated for 6 hours with […] of bleomycin or the corresponding vehicle.
# 53BP1 = assay: Indirect immunofluorescence of 53BP1, bleomycin-treated transfected cells; format: cell-based, human; conditions: C4-2 cells transfected with Cont siRNA, 6 hours with 10 μl of bleomycin
# Description: as §1, §2, §3, §4, §5
# [1] = test system: 22RV1 human prostatic tumor; assay: Subcutaneous tumor volume in mice; format: in vivo; conditions: twice a week
# Description: Tumors are obtained by subcutaneous injection of tumor cells into the flank of Nude mice. Only animals on which tumor uptake is found are included in the study and randomized to receive treatment or control treatment.
# When indicated, the continuous administration of siRNA is carried out by implantation of an Alzet osmotic pump subcutaneously on the back of the mice, on the opposite side to the tumor when the mice wear one. The concentration of siRNA in the pump is adjusted to deliver the indicated amount in mg/kg/day taking into account the pump flow rate indicated by the manufacturer.
# The subcutaneous tumors volume is estimated by measuring with a calliper the largest (D), the smallest (d) diameter of the tumors and their height (h). The volume is calculated by the formula V=D×d×h×Pi/6.
# AR-encoding mRNA = assay: RT-qPCR of AR-encoding mRNA after siRNA transfection; format: cell-based, human; conditions: for AR mRNA expression: both lines
# Description: as §2, §3, §4
# H2AX-encoding mRNA = assay: RT-qPCR of H2AX-encoding mRNA after siRNA transfection; format: cell-based, human; conditions: for H2AX mRNA expression: both lines
# Description: as §2, §3, §4
# C4-2 cells = assay: WST1 cell viability test; format: cell-based, human
# Description: as §2, §3
# MDA MB231 cells = assay: WST1 cell viability test; format: cell-based, human; conditions: for cell viability, siRNA combined with etoposide: 40 μl of etoposide added 24 hours after transfection, WST1 48 h later
# Description: as §2, §3
# H2AX = assay: Western blot of H2AX after siRNA transfection; format: cell-based, human; conditions: C4-2 cells, 72 h after transfection
# Description: as §2, §3, §4
# 22RV1 cells = assay: WST1 cell viability test; format: cell-based, human; conditions: 72 hr after transfection
# Description: as §2, §3
# MDA MB-453 cells = assay: WST1 cell viability test; format: cell-based, human; conditions: 72 hr after transfection
# Description: as §2, §3
# U87 cells = assay: WST1 cell viability test; format: cell-based, human; conditions: 72 hr after transfection
# Description: as §2, §3
# WM266-4 cells = assay: WST1 cell viability test; format: cell-based, human; conditions: for cell viability, siRNA combined with etoposide: 40 μl of etoposide added 24 hours after transfection, WST1 48 h later
# Description: as §2, §3
# AR = assay: Western blot of AR after siRNA transfection; format: cell-based, human; conditions: C4-2 cells, 72 h after transfection
# Description: as §2, §3, §4
# PSA-encoding mRNA = assay: RT-qPCR of PSA-encoding mRNA after siRNA transfection; format: cell-based, human; conditions: LNCaP or C4-2 cells, both lines, 72 hours after transfection
# Description: as §2, §3, §4
# In the experiment shown in FIG. 4, the LNCaP or C4-2 tumor cells were transfected with the following siRNAs: Cont, siAR7 or siARH2AX-1.
# LNCaP cells = assay: WST1 cell viability test; format: cell-based, human; conditions: 72 hr after transfection
# Description: as §2, §3
# [2] = C4-2 cells, 48 hours after transfection, relative to control siRNA
# [3] = LNCaP or MDA MB-453 cells, 72 h after transfection
# [4] = LNCaP or C4-2 cells, 72 hours after transfection
compound,measurement,setting,value
bleomycin,expression of γH2AX,"γH2AX; C4-2 cells transfected with Cont siRNA, 6 hours with 10 μl of bleomycin",strongly increases
same,53BP1 labeling,53BP1,becomes punctiforme
COc1cc([C@@H]2c3cc4c(cc3[C@@H](O[C@@H]3O[C@@H]5CO[C@@H](C)O[C@H]5[C@H](O)[C@H]3O)[C@H]3COC(=O)[C@H]23)OCO4)cc(OC)c1O [etoposide],tumor development,[1]; etoposide 5 mg/kg intraperitoneal,only slightly inhibits tumor development
same,tumor development,[1]; etoposide 15 mg/kg intraperitoneal,produces an inhibition
"siAR2: siRNA inhibiting AR described in PCT/FR2002/003843, SEQ ID NO 9 and SEQ ID NO 10 (chain 1 GACUCAGCUGCCCCAUCCACGNN; chain 2 CGUGGAUGGGGCAGCUGAGUCNN; chemistry not fully specified)",AR expression (mRNA),AR-encoding mRNA; [2],inhibit AR expression in a similar manner
same,H2AX expression (mRNA),H2AX-encoding mRNA; [2],considerably less effective at inhibiting the expression of H2AX
same,cell viability,C4-2 cells; 90 hours after transfection,only marginally
same,"cell viability, siRNA combined with bleomycin","C4-2 cells; bleomycin (10 μM) added 48 hours after transfection, read 48 hours later, versus chemotherapeutic agent alone",does not produce a significantly greater viability-inhibiting effect
same,"cell viability, siRNA combined with etoposide","C4-2 cells; etoposide (10 μM) added 48 hours after transfection, read 48 hours later, versus chemotherapeutic agent alone",does not produce a significantly greater viability-inhibiting effect
same,cell viability,MDA MB231 cells; 90 hours after transfection,only marginally
siH2AX: siRNA hybridizing with H2AX mRNA but not with that of AR; SEQ ID NO 15 and 16 (chain 1 CUGGAAUUCUGCAGCUAACNN; chain 2 GUUAGCUGCAGAAUUCCAGNN; chemistry not fully specified),H2AX mRNA expression,H2AX-encoding mRNA; [3],inhibits H2AX
same,H2AX protein expression,H2AX,inhibits H2AX
same,cell viability / proliferation,22RV1 cells,has little effect on cell proliferation
same,cell viability / proliferation,MDA MB-453 cells,has little effect on cell proliferation
same,"cell viability, siRNA combined with etoposide",MDA MB231 cells,no amplification of the effects of etoposide
same,cell viability / proliferation,MDA MB231 cells; 72 hr after transfection,has little effect on cell proliferation
same,cell viability / proliferation,U87 cells,has little effect on cell proliferation
same,"cell viability, siRNA combined with etoposide",WM266-4 cells,no amplification of the effects of etoposide
same,cell viability / proliferation,WM266-4 cells; 72 hr after transfection,has little effect on cell proliferation
"siARh: siRNA hybridizing with a sequence of the first exon of AR, not H2AX; SEQ ID NO 11 and 12 (chain 1 UCCCCAAGCCCAUCGUAGANN; chain 2 UCUACGAUGGGCUUGGGGANN; chemistry not fully specified)",AR mRNA expression,AR-encoding mRNA; [3],inhibits AR
same,AR protein expression,AR,inhibits AR
same,cell viability / proliferation,22RV1 cells,inhibit the proliferation
same,"cell viability, siRNA combined with etoposide",MDA MB231 cells,no amplification of the effects of etoposide
same,"cell viability, siRNA combined with etoposide",WM266-4 cells,no amplification of the effects of etoposide
"siAR7: siRNA hybridizing with a sequence of the 7th exon of AR, not H2AX; SEQ ID NO 13 and 14 (chain 1 AAUGAUACGAUCGAGUUCCNN; chain 2 GGAACUCGAUCGUAUCAUUNN; chemistry not fully specified)",AR mRNA expression,AR-encoding mRNA; [4],inhibit the expression of AR and PSA
same,H2AX mRNA expression,H2AX-encoding mRNA; [4],only siARH2AX-1 also inhibits the expression of H2AX
same,PSA mRNA expression,PSA-encoding mRNA,inhibit the expression of AR and PSA
same,γH2AX labeling after bleomycin,"γH2AX; siRNA-transfected C4-2 cells, 72 hours after transfection, bleomycin 6 hours",increase in γH2AX labeling
same,cell viability / proliferation,C4-2 cells; 72 hr after transfection,inhibit the proliferation
same,cell viability / proliferation,LNCaP cells,inhibit the proliferation
